The source of these data is patent US11344499B2, “Nanoparticles as delivery vehicles of active ingredients and methods for the production thereof” (CONSIGLIO NAZIONALE DELLE RICERCHE, priority 2017, dated 2022).

For experiment [1], the system named is HT29 cells. Put plainly: Cell cycle analysis by flow cytometry (PI). To be noted: HT29, 50 μM of 9-HSA, 24 h. The class given is cell-based, human. Here is the method:
Cell cycle analysis was performed as follows: 5.0×10^3 HT29 cells were seeded in 200 μl of growth medium in a 48-well culture plate. After 24 h of cell growth, the medium was removed and the cells were incubated with the experimental medium containing KER-NPs-9HSA (50 μM of 9-HSA) and free 9-HSA. Twenty-four hours after treatment, cells were trypsinized, washed twice with PBS and then centrifuged. Cells pellet was re-suspended in 0.01% Nonidet-P40 (Sigma-Aldrich), 10 μg/mL of RNasi (Sigma-Aldrich), 0.1% of sodium citrate (Sigma-Aldrich), 50 μg/mL di propidium iodide (PI) (Sigma-Aldrich), and kept in the dark for 30 min at room temperature. Florescence was detected by a flow cytometry (Beckman Coulter Epics XL-MCL), while cell cycle analysis was performed with Cell Cycle program (MODEFIT 5.0).
On the technique in general: In flow cytometry, cells or beads pass a laser one at a time.

Experiment [2] deals with HT29 cells. Put plainly: Count of alive cells after treatment. In kind it is cell-based, human. The note with it: HT29, 50 μM of 9-HSA, 24 h. Here is the method: Briefly 5.0×10^3 human colon adenocarcinoma cell line HT29 cells were seeded in 200 μl of growth medium in replicate (n=4) in a 48-well culture plate. After 24 h of cell growth, the medium was removed and the cells were incubated with the experimental medium containing KNPs-9HSA (50 μM of 9-HSA) and free 9-HSA. Twenty-four hours after treatment, cells were detached and counted.

For `CCCCCCCCCC(O)CCCCCCCC(=O)O` (centres unmarked) [Entry 9-HSA, 9-hydroxystearic acid], in the experiment with HT29 cells [1], the cell cycle effect result is “blocks the cell cycle in the G0/G1 phase”. The “tumor cell proliferation (number of alive cells)” value in the experiment on HT29 cells [2] is “inhibit tumor cell proliferation”.
